Measurements: ChEMBL document CHEMBL5465560, “Selectivity Literature for EUbOPEN Chemogenomic Library” (2024)

Experiments:
Conditions in all cases: at 10 µM
[1] = molecular target: T1, Serine/threonine-protein kinase Sgk3 (Homo sapiens) (UniProt Q96BR1); assay: Selectivity interaction (KinomeScan (DiscoverX)) EUB0000229b SGK3
T1 sequence (whole entry): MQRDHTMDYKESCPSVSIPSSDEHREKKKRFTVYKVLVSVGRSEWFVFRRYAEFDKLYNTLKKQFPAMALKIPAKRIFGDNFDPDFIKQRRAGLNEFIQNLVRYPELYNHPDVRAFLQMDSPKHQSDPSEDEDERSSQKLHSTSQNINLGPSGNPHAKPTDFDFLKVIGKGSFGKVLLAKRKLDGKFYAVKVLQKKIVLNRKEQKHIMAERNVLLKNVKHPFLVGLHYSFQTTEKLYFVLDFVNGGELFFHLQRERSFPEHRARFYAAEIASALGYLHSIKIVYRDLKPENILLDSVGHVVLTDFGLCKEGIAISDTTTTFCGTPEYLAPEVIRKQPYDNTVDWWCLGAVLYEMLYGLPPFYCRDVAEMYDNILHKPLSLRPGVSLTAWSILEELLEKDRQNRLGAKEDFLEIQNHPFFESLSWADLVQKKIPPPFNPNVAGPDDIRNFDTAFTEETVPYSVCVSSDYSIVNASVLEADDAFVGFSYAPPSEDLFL

[2] = molecular target: T2, Phosphatidylinositol 4,5-bisphosphate 3-kinase catalytic subunit delta isoform (Homo sapiens) (UniProt O00329); assay: Selectivity interaction (KinomeScan (DiscoverX)) EUB0000229b PIK3CD
T2 sequence (whole entry): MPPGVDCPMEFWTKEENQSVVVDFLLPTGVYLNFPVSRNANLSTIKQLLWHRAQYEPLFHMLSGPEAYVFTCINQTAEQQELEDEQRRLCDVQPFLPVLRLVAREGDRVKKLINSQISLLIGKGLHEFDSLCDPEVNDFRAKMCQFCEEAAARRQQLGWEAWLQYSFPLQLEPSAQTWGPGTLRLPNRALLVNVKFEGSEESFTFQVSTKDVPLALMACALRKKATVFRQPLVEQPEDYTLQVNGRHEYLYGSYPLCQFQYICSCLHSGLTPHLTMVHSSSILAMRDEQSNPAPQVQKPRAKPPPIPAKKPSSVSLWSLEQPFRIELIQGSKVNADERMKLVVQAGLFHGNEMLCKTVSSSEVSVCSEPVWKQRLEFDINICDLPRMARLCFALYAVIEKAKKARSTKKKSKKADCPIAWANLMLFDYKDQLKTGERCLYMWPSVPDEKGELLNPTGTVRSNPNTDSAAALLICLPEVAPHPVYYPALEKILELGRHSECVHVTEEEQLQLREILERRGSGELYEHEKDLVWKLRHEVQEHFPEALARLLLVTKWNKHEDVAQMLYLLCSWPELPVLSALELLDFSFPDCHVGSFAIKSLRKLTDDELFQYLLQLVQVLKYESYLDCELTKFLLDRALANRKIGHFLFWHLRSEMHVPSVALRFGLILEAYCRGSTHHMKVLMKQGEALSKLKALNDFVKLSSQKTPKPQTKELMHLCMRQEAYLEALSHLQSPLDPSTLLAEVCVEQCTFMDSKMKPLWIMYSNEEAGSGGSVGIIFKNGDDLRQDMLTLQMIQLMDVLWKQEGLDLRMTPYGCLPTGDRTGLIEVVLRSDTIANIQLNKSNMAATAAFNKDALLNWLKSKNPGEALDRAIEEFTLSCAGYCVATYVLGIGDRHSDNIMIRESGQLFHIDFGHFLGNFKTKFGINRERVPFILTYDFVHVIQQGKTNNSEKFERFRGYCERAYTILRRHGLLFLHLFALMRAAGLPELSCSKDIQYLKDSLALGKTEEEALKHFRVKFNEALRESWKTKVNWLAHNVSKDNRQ

[3] = molecular target: T3, Activin receptor type-1B (Homo sapiens) (UniProt P36896); assay: Selectivity interaction (KinomeScan (DiscoverX)) EUB0000618a ACVR1B
T3 sequence (whole entry): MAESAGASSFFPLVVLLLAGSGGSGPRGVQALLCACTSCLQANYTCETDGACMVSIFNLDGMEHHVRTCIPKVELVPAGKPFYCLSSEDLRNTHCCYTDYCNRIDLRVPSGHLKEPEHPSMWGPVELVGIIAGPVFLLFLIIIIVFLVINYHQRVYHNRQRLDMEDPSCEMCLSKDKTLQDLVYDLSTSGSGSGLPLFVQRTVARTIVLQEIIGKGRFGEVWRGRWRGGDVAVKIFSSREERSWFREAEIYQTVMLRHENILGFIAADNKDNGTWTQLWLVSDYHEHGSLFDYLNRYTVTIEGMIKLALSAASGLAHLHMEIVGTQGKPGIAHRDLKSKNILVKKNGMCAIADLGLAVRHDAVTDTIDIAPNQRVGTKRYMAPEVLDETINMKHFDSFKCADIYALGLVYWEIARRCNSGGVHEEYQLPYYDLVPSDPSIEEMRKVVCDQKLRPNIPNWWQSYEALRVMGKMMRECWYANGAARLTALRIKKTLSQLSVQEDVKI

Q: What does the source list for `COc1cc(N(C)c2ccnc3ccc(C(F)(F)F)cc23)cc(OC)c1OC`?
A: % binding [1]: 79%; % binding [2]: 86%

Q: Which % of control [3] does the source give for `O[C@H]1CC[C@H](Nc2ncc3nc(Nc4c(F)cc(F)cc4F)n([C@H]4CCOC4)c3n2)CC1` here?
A: The % of control was 99%.
